Biological target: T1, CYP2C19 (Homo sapiens, UniProt P33261)
T1 construct: purchased Sumitomo Chemical Co., Ltd; host or cells: yeast (microsomes)
Test: Human CYP2C19 activity inhibition test (S-(+)-mephenytoin to 4'-hydroxymephenytoin)
Assay type: in vitro ADME
Conditions: human, pH 7.4, probe S-(+)-mephenytoin (to 4'-hydroxymephenytoin), test compound 10 μM; human CYP2C19 yeast expression system microsome; 4'-hydroxymephenytoin generated vs control; read-out: CYP2C19 residual activity (%)
Procedure: (Human CYP2C19 Activity Inhibition Test)
CYP2C19 specifically participates in the metabolism reaction from S-(+)-mephenytoin to 4′-hydroxymephenytoin. Therefore, by use of an expression system CYP2C19, the production amount (concentration) of 4′-hydroxymephenytoin, serving as an index for CYP2C19 activity, was determined, whereby the inhibitory action of respective test substances was investigated.
(a) Metabolizing Activity Test
A solution of S-(+)-mephenytoin in methanol (125 μmol/L, 50 μL) and a solution of a test substance in methanol (25 μmol/L, 0, 10, 100, or 200 μL) were placed in a 10-mL glass test tube. The solvent was removed under a nitrogen gas at 40° C. A 75 μL mixture of 0.5M phosphate buffer (pH 7.4)-0.5 mM EDTA (20:10), 140 μL purified water, and 10 μL human CYP2C19 yeast expression system microsome (purchased from Sumitomo Chemical Co., Ltd.) were added.
Incubation was performed for 10 minutes at 37° C. Subsequently, aqueous 12% perchloric acid solution (50 μL) was added, to thereby stop the reaction.
After the reaction was stopped, an internal standard substance (I.S.) methyl p-hydroxybenzoate (100 μg/ mL, 50 μL), and diethyl ether (2 mL) were added. The mixture was shaken for 10 minutes, followed by centrifugation at 3,000 rpm for 10 minutes. The organic layer was separated, and the solvent was removed under a nitrogen gas at 40° C. The residue was dissolved in a 200 μL mobile phase, and the mixture was subjected to analysis by high performance liquid chromatography (HPLC).
In order to generate a calibration curve, the general procedure of the above process was repeated by use of 4′-hydroxymephenytoin solution instead of the S-(+)-mephenytoin solution. Quantitation was performed on the basis of the peak area ratio of 4′-hydroxymephenytoin to I.S. The amount of 4′-hydroxymephenytoin generated in the control sample was compared with that generated in the present of a test compound, and the results of comparison were used as an activity index.
HPLC was performed under the conditions described below (HPLC conditions A or HPLC conditions B).

T1 sequence (P33261 whole entry): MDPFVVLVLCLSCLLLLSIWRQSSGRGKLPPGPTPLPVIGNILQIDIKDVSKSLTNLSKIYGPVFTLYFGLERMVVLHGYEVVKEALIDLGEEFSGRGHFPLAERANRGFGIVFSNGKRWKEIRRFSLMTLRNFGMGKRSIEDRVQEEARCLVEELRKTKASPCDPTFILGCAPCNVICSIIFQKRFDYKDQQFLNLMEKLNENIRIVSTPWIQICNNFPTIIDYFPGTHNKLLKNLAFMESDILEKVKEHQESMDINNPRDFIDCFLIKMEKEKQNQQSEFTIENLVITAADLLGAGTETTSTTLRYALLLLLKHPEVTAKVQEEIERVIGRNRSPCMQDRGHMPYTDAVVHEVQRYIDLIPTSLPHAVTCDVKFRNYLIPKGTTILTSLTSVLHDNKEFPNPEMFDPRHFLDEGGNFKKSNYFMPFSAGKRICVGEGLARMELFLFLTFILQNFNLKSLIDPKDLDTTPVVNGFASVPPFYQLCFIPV

Structure (SMILES)	activity at 10 min, 10 µM [%]
COc1c(OCCOCC(F)(F)F)ccnc1C[S+]([O-])c1nc2ccccc2[nH]1 (single isomer, unassigned; (+)) [Example 3(2), (+)-2-{3-methoxy-4-[2-(2,2,2-trifluoroethoxy)ethoxy]pyridin-2-yl-methylsulfinyl}-1H-benzimidazole]	98.3
COc1c(OCCCC(F)(F)F)ccnc1C[S+]([O-])c1nc2ccccc2[nH]1 (single isomer, unassigned; (-)) [Example 6(1), (−)-2-[3-methoxy-4-(4,4,4-trifluorobutoxy)pyridin-2-yl-methanesulfinyl]-1H-benzimidazole]	66.4
[O-][S+](Cc1cc(OCCCC(F)(F)F)ccn1)c1nc2ccccc2[nH]1 (single isomer, unassigned; (-)) [Example 10(2), (−)-2-[4-(4,4,4-trifluorobutoxy)pyridin-2-yl-methanesulfinyl]-1H-benzimidazole]	89.4
COc1c(OCCCC(F)(F)F)ccnc1C[S+]([O-])c1nc2ccccc2[nH]1 (stereo not drawn) [Example 1(2), 2-[3-methoxy-4-(4,4,4-trifluorobutoxy)pyridin-2-yl-methylsulfinyl]-1H-benzimidazole]	71.2
COc1c(OCCOCC(F)(F)F)ccnc1C[S+]([O-])c1nc2ccccc2[nH]1 (stereo not drawn) [Example 2(2), 2-{3-methoxy-4-[2-(2,2,2-trifluoroethoxy)ethoxy]pyridin-2-yl-methylsulfinyl}-1H-benzimidazole]	66.5
[O-][S+](Cc1cc(OCCCC(F)(F)F)ccn1)c1nc2ccccc2[nH]1 (stereo not drawn) [Example 9(3), 2-[4-(4,4,4-trifluorobutoxy)pyridin-2-yl-methanesulfinyl]-1H-benzimidazole]	76.1

Other lines, results leading:

activity at 10 min, 10 µM [%]	Structure (SMILES)
98.6	[O-][S+](Cc1cc(OCCOCC(F)(F)F)ccn1)c1nc2ccccc2[nH]1 (single isomer, unassigned; (-)) [Example 13(3), (−)-2-{4-[2-(2,2,2-trifluoroethoxy)ethoxy]pyridin-2-yl-methanesulfinyl}-1H-benzimidazole]
35.4	COc1ccc2nc([S@@+]([O-])Cc3ncc(C)c(OC)c3C)[nH]c2c1 [esomeprazole, reference compound]
8.7	Cc1c(OCC(F)(F)F)ccnc1C[S+]([O-])c1nc2ccccc2[nH]1 (stereo not drawn) [lansoprazole, reference compound]
18.4	COc1ccc2[nH]c([S+]([O-])Cc3ncc(C)c(OC)c3C)nc2c1 (stereo not drawn) [omeprazole, reference compound]
33.1	COc1ccnc(C[S+]([O-])c2nc3ccc(OC(F)F)cc3[nH]2)c1OC (stereo not drawn) [pantoprazole, reference compound]
39.8	COCCCOc1ccnc(C[S+]([O-])c2nc3ccccc3[nH]2)c1C (stereo not drawn) [rabeprazole, reference compound]

Source: patent publication US6884810B2, “Benzimidazole derivatives” (Zeria Pharmaceutical Co., Ltd., priority 2001, dated 2005)
